Experimental data as given in patent publication US20070232647A1, “Use of Ppar Agonists to Treat Ruminants” (priority 2004, published 2007).

How the values were obtained:
[1] = system: Holstein cows; test: Average daily milk yield over sixty days after calving; format: in vivo; conditions: approximately 0.5 mg/kg SC on day of calving and day five post-calving, increased from 41.8 (placebo), p=0.052, FIG. 6
Protocol: One hundred twenty four pregnant, non-lactating Holstein cows were allocated to two treatment groups (placebo and COMPOUND (at approximately 0.5 mg/kg). In this Example COMPOUND is (3S)-3-[3-(1-Carboxy-1-methyl-ethoxy)-phenyl]-piperidine-1-carboxylic acid, 4-trifluoromethyl-benzyl ester. Animals were allowed to calve, treated by subcutaneous injection on the day of calving and on day five post-calving. Disease events and daily milk production were recorded for the following sixty days. The average daily milk yield in the treated cows was increased from 41.8 to 43.2 kg/day (p=0.052). Results are shown in FIG. 6.

[2] = system: mid-lactation cows; test: Serum glucose levels, Example 1: PK/PD of two PPAR alpha agonists given IV and SC; format: in vivo; conditions: 0.5 mg/kg IV or SC, regardless of route of administration; blood samples up to 72 hours; FIG. 1
Protocol: Both compounds were administered by IV and SC routes, as outlined in the table below.
All animals were bled one day prior, and 15 minutes prior, to compound administration. Blood samples were collected from animals treated via IV at 5 and 10 minutes post compound administration. Blood samples were collected from all animals at 0.5, 1, 2, 4, 6, 24, 30, 48, 54, and 72 hours post compound administration. Samples were analyzed for glucose concentrations using a Dade Behring Dimension RXL serum chemistry analyzer. […] Other commercially available, standard apparatus for testing glucose levels can also be used.

SMILES: CC(C)(Oc1cccc([C@@H]2CCCN(C(=O)OCc3ccc(C(F)(F)F)cc3)C2)c1)C(=O)O [Compound A, (3S)-3-[3-(1-Carboxy-1-methyl-ethoxy)-phenyl]-piperidine-1-carboxylic acid 4-trifluoromethyl-benzyl ester]
- average daily milk yield [1]: 43.2 kg/day

SMILES: Cc1ccc(-c2ccc(NS(=O)(=O)c3ccc(C)c(C(=O)O)c3)cc2)cc1 [Compound X, 2-Methyl-5-(4′-methyl-biphenyl-4-ylsulfamoyl)-benzoic acid]
- glucose concentration relative to baseline values [2]: increase in glucose
